# Experimental data as given in patent publication US20250074890A1, “CYANOPYRIDINE AND CYANOPYRIMIDINE BCL6 DEGRADERS” (DANA-FARBER CANCER INSTITUTE, INC., priority 2021, published 2025).
# Counter-ions that a name gives are not always drawn.
# Biological target: T1, BCL6 (Homo sapiens, UniProt P41182)
# T1 construct: Endogenous BCL6 was tagged with the 11-amino acid SmBiT through CRISPR/Cas9 gene editing; endogenous in cells; host or cells: Su-DHL-4 (CRISPR/Cas9 knock-in, single cell clone)
# Assay: HiBiT cellular degradation assay in Su-DHL-4 cells
# Type: cell-based
# Settings: concentration to reach 50% degradation of endogenous SmBiT-tagged BCL6, 24 hours of compound treatment
# Experimental: DC50 (concentration to reach 50% degradation) values were determined from a cellular degradation assay (HiBiT, Promega™) in Su-DHL-4 cells (Table 1). Endogenous BCL6 was tagged with the 11-amino acid SmBiT through CRISPR/Cas9 gene editing and single cell clone selection. After 24 hours of compound treatment, cells were lysed and incubated with LgBiT protein to reconstitute intact nanoluciferase. Substrate was then added and relative luciferase units were measured. Degradation levels for each treatment were taken as a percentage compared to the control, 100% DMSO (Prism).
row,SMILES,DC50 [nM]
1,"CNC(=O)COc1cc2cc(Nc3nc(N4C[C@@H](C)C(F)(F)[C@@H](N)C4)c(C#N)cc3Cl)ccc2n(C)c1=O [Compound 43, 2-((6-((6-((3S,5R)-3-Amino-4,4-difluoro-5-methylpiperidin-1-yl)-3-chloro-5-cyanopyridin-2-yl)amino)-1-methyl-2-oxo-1,2-dihydroquinolin-3-yl)oxy)-N-methylacetamide]",10
2,"CC(O)CCn1c(=O)n(C)c2ccc(Nc3nc(N4C[C@H](CCO)[C@@H](F)[C@H](C)C4)c(C#N)cc3F)cc21 (stereo partly drawn) [Compound 57, 5-fluoro-2-[(3S,4S,5R)-4-fluoro-3-(2-hydroxyethyl)-5-methyl-1-piperidyl]-6-[[3-(3-hydroxybutyl)-1-methyl-2-oxo-benzimidazol-5-yl]amino]pyridine-3-carbonitrile]",> 400
3,"CNC(=O)COc1cc2cc(Nc3nc(N4C[C@@H](C)[C@@H](F)[C@@H](C)C4)c(C#N)cc3Cl)ccc2n(CCN(C)C)c1=O [Compound 72, 2-((6-((3-Chloro-5-cyano-6-((3S,4S,5R)-4-fluoro-3,5-dimethylpiperidin-1-yl)pyridin-2-yl)amino)-1-(2-(dimethylamino)ethyl)-2-oxo-1,2-dihydroquinolin-3-yl)oxy)-N-methylacetamide]",2
4,"C[C@@H]1CN(c2nc(Nc3ccc4c(c3)n(CC[C@@H](C)O)c(=O)n4C)c(F)cc2C#N)C[C@H](C)[C@@H]1F [Compound 55, 5-Fluoro-2-((3S,4S,5R)-4-fluoro-3,5-dimethylpiperidin-1-yl)-6-((3-((R)-3-hydroxybutyl)-1-methyl-2-oxo-2,3-dihydro-1H-benzo[d]imidazol-5-yl)amino)nicotinonitrile]",33
5,"CNC(=O)COc1cc2cc(Nc3nc(N4C[C@@H](C)C(F)(F)[C@@H](C)C4)c(C#N)cc3Cl)ccc2n(CC2COC2)c1=O [Compound 7, 2-((6-((3-chloro-5-cyano-6-((3R,5S)-4,4-difluoro-3,5-dimethylpiperidin-1-yl)pyridin-2-yl)amino)-1-(oxetan-3-ylmethyl)-2-oxo-1,2-dihydroquinolin-3-yl)oxy)-N-methylacetamide]",5
6,"C[C@@H]1CN(c2nc(Nc3ccc4c(c3)n(CCC(C)(C)O)c(=O)n4C)c(F)cc2C#N)C[C@H](O)C1(F)F [Compound 82, 2-((3S,5R)-4,4-difluoro-3-hydroxy-5-methylpiperidin-1-yl)-5-fluoro-6-((3-(3-hydroxy-3-methylbutyl)-1-methyl-2-oxo-2,3-dihydro-1H-benzo[d]imidazol-5-yl)amino)nicotinonitrile]",33
7,"C[C@@H]1CN(c2nc(Nc3ccc4c(c3)n(C[C@@H]3COC(=O)N3)c(=O)n4C)c(F)cc2C#N)C[C@H](C)[C@@H]1F [Compound 88, 5-Fluoro-2-((3S,4S,5R)-4-fluoro-3,5-dimethylpiperidin-1-yl)-6-((1-methyl-2-oxo-3-(((R)-2-oxooxazolidin-4-yl)methyl)-2,3-dihydro-1H-benzo[d]imidazol-5-yl)amino)nicotinonitrile]",80
8,"C[C@@H]1CN(c2nc(Nc3ccc4c(c3)cc(OC[C@H]3CNCCO3)c(=O)n4C)c(Cl)cc2C#N)C[C@H](C)[C@@H]1F [Compound 71, 5-Chloro-2-((3S,4S,5R)-4-fluoro-3,5-dimethylpiperidin-1-yl)-6-((1-methyl-3-((R)-morpholin-2-ylmethoxy)-2-oxo-1,2-dihydroquinolin-6-yl)amino)nicotinonitrile]",> 400
9,"C[C@H]1CN(c2nc(Nc3ccc4c(c3)n(CCC(C)(C)O)c(=O)n4C)c(F)cc2C#N)C[C@@H](O)C1(F)F (single isomer, unassigned) [Compound 83]",> 400
10,"CNC(=O)COc1cc2cc(Nc3nc(N4C[C@@H](C)[C@@H](F)[C@@H](C)C4)c(C#N)cc3Cl)ccc2n(CCCN)c1=O [Compound 69, 2-((1-(3-Aminopropyl)-6-((3-chloro-5-cyano-6-((3S,4S,5R)-4-fluoro-3,5-dimethylpiperidin-1-yl)pyridin-2-yl)amino)-2-oxo-1,2-dihydroquinolin-3-yl)oxy)-N-methylacetamide]",15
11,"C[C@@H]1CN(c2nc(Nc3ccc4c(c3)n(CCC(C)(C)O)c(=O)n4C)c(F)cc2C#N)C[C@H](O)[C@@H]1F [Compound 52, 5-Fluoro-2-((3S,4R,5R)-4-fluoro-3-hydroxy-5-methylpiperidin-1-yl)-6-((3-(3-hydroxy-3-methylbutyl)-1-methyl-2-oxo-2,3-dihydro-1H-benzo[d]imidazol-5-yl)amino)nicotinonitrile]",17
12,"C[C@H]1CN(c2nc(Nc3ccc4c(c3)n(CCC(C)(C)O)c(=O)n4C)c(F)cc2C#N)C[C@@H](N)C1(F)F [Compound 81, 2-((3R,5S)-3-Amino-4,4-difluoro-5-methylpiperidin-1-yl)-5-fluoro-6-((3-(3-hydroxy-3-methylbutyl)-1-methyl-2-oxo-2,3-dihydro-1H-benzo[d]imidazol-5-yl)amino)nicotinonitrile hydrochloride]",31
13,"C[C@@H](O)Cn1c(=O)n(CCC(C)(C)O)c2cc(Nc3nc(N4C[C@@H](N)C(F)(F)[C@@H](C)C4)c(C#N)cc3F)ccc21 [Compound 91, 2-((3R,5S)-3-Amino-4,4-difluoro-5-methylpiperidin-1-yl)-5-fluoro-6-((3-(3-hydroxy-3-methylbutyl)-1-((R)-2-hydroxypropyl)-2-oxo-2,3-dihydro-1H-benzo[d]imidazol-5-yl)amino)nicotinonitrile]",118
14,"CNC(=O)COc1cc2cc(Nc3nc(N4C[C@@H](C)C(F)(F)[C@@H](C)C4)c(C#N)cc3Cl)ccc2n(CCN(C)C)c1=O [Compound 11, 2-((6-((3-Chloro-5-cyano-6-((3R,5S)-4,4-difluoro-3,5-dimethylpiperidin-1-yl)pyridin-2-yl)amino)-1-(2-(dimethylamino)ethyl)-2-oxo-1,2-dihydroquinolin-3-yl)oxy)-N-methylacetamide]",2
15,"C[C@@H]1CN(c2nc(Nc3ccc4c(c3)n(C[C@H]3CNC(=O)O3)c(=O)n4C)c(F)cc2C#N)C[C@H](N)C1(F)F [Compound 84, 2-((3S,5R)-3-amino-4,4-difluoro-5-methylpiperidin-1-yl)-5-fluoro-6-((1-methyl-2-oxo-3-(((R)-2-oxooxazolidin-5-yl)methyl)-2,3-dihydro-1H-benzo[d]imidazol-5-yl)amino)nicotinonitrile]",> 400
16,"C[C@H]1CN(c2nc(Nc3ccc4c(c3)n(CCC(C)(C)O)c(=O)n4CC3COC3)c(Cl)cc2C#N)C[C@@H](N)C1(F)F [Compound 38, 2-((3R,5S)-3-Amino-4,4-difluoro-5-methylpiperidin-1-yl)-5-chloro-6-((3-(3-hydroxy-3-methylbutyl)-1-(oxetan-3-ylmethyl)-2-oxo-2,3-dihydro-1H-benzo[d]imidazol-5-yl)amino)nicotinonitrile]",> 400
17,"C[C@@H]1CN(c2nc(Nc3ccc4c(c3)n(CCC(C)(C)O)c(=O)n4C)c(Cl)cc2C#N)C[C@H](N)C1(F)F [Compound 48, 2-((3S,5R)-3-Amino-4,4-difluoro-5-methylpiperidin-1-yl)-5-chloro-6-((3-(3-hydroxy-3-methylbutyl)-1-methyl-2-oxo-2,3-dihydro-1H-benzo[d]imidazol-5-yl)amino)nicotinonitrile]",31
